Paper PMC6550521, “Stress-Induced Changes in the Lipid Microenvironment of β-(1,3)-D-Glucan Synthase Cause Clinically Important Echinocandin Resistance in Aspergillus fumigatus” (mBio, 2019)
Starred links: 1 amine or outer side, 2 acyl side, 3 side chain; linkers in the order of their positions; H or OH if unused. Positions of bridges follow the written chain, without caps; N, C: chain ends. Non-standard residues stand in square brackets, D forms with d. Residues, ends and D or L forms follow the SMILES beside them. *: point of attachment. Orn(4R-OH,5R-OCH2CH2NMe3+) = C[N+](C)(C)CCO[C@@H](N[*:3])[C@H](O)C[C@H](N[*:1])C(=O)[*:2]; hTyr(3S-OH,4S-OH,3'-OSO3H) = N[C@H](C(=O)O)[C@H](O)[C@@H](O)c1ccc(O)c(OS(=O)(=O)O)c1; pTerphenylCO(4''-OnC5H11) = CCCCCOc1ccc(-c2ccc(-c3ccc(C(=O)*)cc3)cc2)cc1; Orn(4R-OH,5R-OH) = O=C([C@H](C[C@@H](O)[C@@H](O)N[*:3])N[*:1])[*:2]; hTyr(3S-OH,4S-OH) = N[C@H](C(=O)O)[C@H](O)[C@@H](O)c1ccc(O)cc1; Pro(3S-OH,4S-Me) = C[C@H]1CN[C@H](C(=O)O)[C@H]1O; X1 = CCCCCOc1ccc(-c2cc(-c3ccc(C(=O)*)cc3)no2)cc1; Gln(3R-OH) = NC(=O)C[C@@H](O)[C@H](N)C(=O)O; Hyp = O=C(O)[C@@H]1C[C@@H](O)CN1

Experiments:
[1] = tested on: A. fumigatus RG101; assay type: cell-based, Aspergillus fumigatus; conditions: for Growth phenotype of RG101 with drug alone: 1 μg/ml drug, RPMI 1640, absence of CAS; for Growth phenotype of RG101 with drug alone / Drug susceptibility testing result, RG101: 24 h; for Drug susceptibility testing result, RG101: Fig 1B
Description: The following drugs (supplier) were tested: caspofungin (Merck & Co., Inc.), micafungin (Astellas Pharma US, Inc.), anidulafungin (Pfizer Inc.), itraconazole (Sigma-Aldrich), voriconazole (Pfizer Inc.), and amphotericin B (Sigma-Aldrich). In addition, rezafungin and ibrexafungerp were obtained from Cidara Therapeutics and Scynexis Inc., respectively.

[2] = tested on: A. fumigatus ATCC 13073; assay: Antifungal susceptibility testing (MEC, CLSI M38-A2); assay type: cell-based, Aspergillus fumigatus; conditions: for Drug susceptibility testing result, ATCC 13073: 24 h, Fig 1B
Description: (§1) Minimum effective concentrations (MECs) for A. fumigatus strains were determined according to CLSI document M38-A2 ([48]) and defined as the lowest drug concentration that led to the growth of small, rounded, compact hyphal forms compared to the hyphal growth seen in the drug-free growth control wells. The following drugs (supplier) were tested: caspofungin (Merck & Co., Inc.), micafungin (Astellas Pharma US, Inc.), anidulafungin (Pfizer Inc.), itraconazole (Sigma-Aldrich), voriconazole (Pfizer Inc.), and amphotericin B (Sigma-Aldrich). In addition, rezafungin and ibrexafungerp were obtained from Cidara Therapeutics and Scynexis Inc., respectively.

[3] = tested on: A. fumigatus S679P (fks1 Ser-679-Pro mutant); assay: as above; assay type: cell-based, Aspergillus fumigatus
Description: as §1

[4] = tested on: reactive oxygen species (ROS) in A. fumigatus RG101; assay: ROS production, DCFDA fluorescence assay; assay type: cell-based, Aspergillus fumigatus; conditions: RG101
Description: ROS production in mycelia was measured using a protocol previously described by Blatzer et al. ([51]) with a few changes. Suspensions of 10^4 spores/ml of ATCC 13073 and RG101 were grown in static culture in complete supplement mixture (CSM) medium for 16 h in a 96-well microplate at 37°C. After incubation, the mycelia were washed once with CSM, 10 μM 2′,7′–dichlorofluorescin diacetate (DCFDA) dye was added, and cells were incubated in the dark at 37°C for 30 min. Cells were then washed three times with phosphate-buffered saline (PBS), and a final concentration of 1 μg/ml of each echinocandin in CSM medium was added to different wells. Fluorescence intensity (excitation at 485 nm and emission at 530 nm) was measured for 1 h in a microplate reader (Tecan Infinite M200 Pro). Mycelia stained with DCFDA without any drug were used as a control.

[5] = tested on: Aspergillus fumigatus clinical isolate 117; assay: Antifungal susceptibility testing (MEC, CLSI M38-A2); assay type: cell-based; conditions: clinical isolate 117, fks1 WT
Description: as §1

[6] = tested on: Aspergillus fumigatus clinical isolate 2770; assay: as above; assay type: cell-based; conditions: clinical isolate 2770, fks1 WT
Description: as §1

[7] = tested on: Aspergillus fumigatus clinical isolate 32315; assay: as above; assay type: cell-based; conditions: clinical isolate 32315, fks1 WT
Description: as §1

[8] = tested on: Aspergillus fumigatus clinical isolate 32458; assay: as above; assay type: cell-based; conditions: clinical isolate 32458, fks1 WT
Description: as §1

[9] = tested on: Aspergillus fumigatus clinical isolate 68284B; assay: as above; assay type: cell-based; conditions: fks1 WT
Description: as §1

[10] = tested on: A. fumigatus RG101; assay: Acute pulmonary aspergillosis model in neutropenic DBA/2 mice, lung fungal burden by qPCR; assay type: in vivo, Aspergillus fumigatus
Description: Resistance of RG101 to CAS in vivo was tested in an acute pulmonary aspergillosis model. Thirty inbred DBA/2 mice were rendered neutropenic and infected with 1 × 10^6 RG101 conidia intratracheally. The mice were then treated with CAS (5 mg/kg of body weight), MFG (5 mg/kg), or vehicle daily for 5 days, and lung burdens were determined using quantitative PCR (qPCR). Details of the experiment are provided in Text S1 in the supplemental material.
All animal experiments performed were approved by the Rutgers University Institutional Animal Care and Use Committee. Thirty female DBA/2 mice [The Jackson Laboratory, Bar Harbor, ME] were used in the experiment. The mice were housed in cages equipped with HEPA filters and were allowed free access to food and water. To establish neutropenia, mice were immunosuppressed with cyclophosphamide on days -4 (150 mg/kg), -1 and +2 (100 mg/kg) intraperitoneally (ip) and hydrocortisone on day -1 (200 mg/kg) via subcutaneous injection (sc). The animals were given prophylaxis sc ceftazidime (50 mg/kg) on all days to prevent secondary bacterial infections. A. fumigatus RG101 was streaked out from a frozen glycerol stock and cultured on Potato dextrose agar (PDA) slant for 2 days. The spores were harvested in phosphate-buffered saline (PBS) with 0.05% (v/v) Tween 20 and counted in a hemocytometer. The mice were briefly anesthetized IP Ketamine (65 mg/kg)/Xylazine (5 mg/kg) and infected with 1×10^6 spores of RG101 in 25 µL volume via intratracheal instillation. The 30 RG101 infected mice were randomized into following treatment arms for IP treatment: vehicle, CAS (5 mg/kg), and MFG (5 mg/kg). The first treatment was given at 3 h post infection (PI) and continued daily treatments were administered. On day 5 PI, mice were humanely euthanized via CO2 narcosis. Lungs were excised and homogenized in 1 ml of sterile PBS using a 2 ml tube containing ceramic spheres by MP Biomedicals (116913500). Tissue was then homogenized in 20 s bursts in a mini bead beater (MP FastPrep-24) followed by cooling on ice. DNA was then isolated from an aliquot of the lung homogenate (100 μl) using the QIAamp DNA Mini Kit by Qiagen (51304) and analyzed by real-time quantitative PCR (qPCR) using primers specific for A. fumigatus 18S rRNA genes (Wiederhold et al 2004).

[11] = target: β-(1,3)-D-glucan synthase of RG101 (Aspergillus fumigatus, UniProt Q4WLT4); assay: Glucan synthase kinetic inhibition assay, enzyme from RG101; assay type: biochemical; conditions: enzyme from RG101 grown at 4 μg/ml CAS
Description: ATCC 13073 or RG101 was grown in liquid YPD medium at 37°C for 16 h. Partially purified glucan synthase was isolated by the product entrapment method, as previously described ([21]). Sensitivity to echinocandin drugs was measured by glucan synthase assay, using a 96-well multiscreen high-throughput screen filtration system (Millipore Corporation, Bedford, MA) in a final volume of 100 μl. Inhibition of the enzyme by the drug was analyzed after incubation of the enzyme with a radioactive substrate over a broad range of concentrations (0 to 10,000 ng/ml) of echinocandins for 1 h at room temperature. Radioactivity from the enzyme product, β-(1,3)-D-glucan, was measured. Inhibition profiles were determined using a sigmoidal response curve fitting algorithm with GraphPad Prism software (v 7.04).
To study the effect of lipids on the enzyme, dihydrosphingosine, phytosphingosine, or phytoceramide C2 (Sigma-Aldrich D6783, P2795, and C8105, respectively) was added directly to the assay mixture and coincubated with an echinocandin for 1 h at room temperature.

[12] = thiourea 15 mM with CAS 1 μg/ml

Sequence of β-(1,3)-D-glucan synthase of RG101 (Q4WLT4 1-1904): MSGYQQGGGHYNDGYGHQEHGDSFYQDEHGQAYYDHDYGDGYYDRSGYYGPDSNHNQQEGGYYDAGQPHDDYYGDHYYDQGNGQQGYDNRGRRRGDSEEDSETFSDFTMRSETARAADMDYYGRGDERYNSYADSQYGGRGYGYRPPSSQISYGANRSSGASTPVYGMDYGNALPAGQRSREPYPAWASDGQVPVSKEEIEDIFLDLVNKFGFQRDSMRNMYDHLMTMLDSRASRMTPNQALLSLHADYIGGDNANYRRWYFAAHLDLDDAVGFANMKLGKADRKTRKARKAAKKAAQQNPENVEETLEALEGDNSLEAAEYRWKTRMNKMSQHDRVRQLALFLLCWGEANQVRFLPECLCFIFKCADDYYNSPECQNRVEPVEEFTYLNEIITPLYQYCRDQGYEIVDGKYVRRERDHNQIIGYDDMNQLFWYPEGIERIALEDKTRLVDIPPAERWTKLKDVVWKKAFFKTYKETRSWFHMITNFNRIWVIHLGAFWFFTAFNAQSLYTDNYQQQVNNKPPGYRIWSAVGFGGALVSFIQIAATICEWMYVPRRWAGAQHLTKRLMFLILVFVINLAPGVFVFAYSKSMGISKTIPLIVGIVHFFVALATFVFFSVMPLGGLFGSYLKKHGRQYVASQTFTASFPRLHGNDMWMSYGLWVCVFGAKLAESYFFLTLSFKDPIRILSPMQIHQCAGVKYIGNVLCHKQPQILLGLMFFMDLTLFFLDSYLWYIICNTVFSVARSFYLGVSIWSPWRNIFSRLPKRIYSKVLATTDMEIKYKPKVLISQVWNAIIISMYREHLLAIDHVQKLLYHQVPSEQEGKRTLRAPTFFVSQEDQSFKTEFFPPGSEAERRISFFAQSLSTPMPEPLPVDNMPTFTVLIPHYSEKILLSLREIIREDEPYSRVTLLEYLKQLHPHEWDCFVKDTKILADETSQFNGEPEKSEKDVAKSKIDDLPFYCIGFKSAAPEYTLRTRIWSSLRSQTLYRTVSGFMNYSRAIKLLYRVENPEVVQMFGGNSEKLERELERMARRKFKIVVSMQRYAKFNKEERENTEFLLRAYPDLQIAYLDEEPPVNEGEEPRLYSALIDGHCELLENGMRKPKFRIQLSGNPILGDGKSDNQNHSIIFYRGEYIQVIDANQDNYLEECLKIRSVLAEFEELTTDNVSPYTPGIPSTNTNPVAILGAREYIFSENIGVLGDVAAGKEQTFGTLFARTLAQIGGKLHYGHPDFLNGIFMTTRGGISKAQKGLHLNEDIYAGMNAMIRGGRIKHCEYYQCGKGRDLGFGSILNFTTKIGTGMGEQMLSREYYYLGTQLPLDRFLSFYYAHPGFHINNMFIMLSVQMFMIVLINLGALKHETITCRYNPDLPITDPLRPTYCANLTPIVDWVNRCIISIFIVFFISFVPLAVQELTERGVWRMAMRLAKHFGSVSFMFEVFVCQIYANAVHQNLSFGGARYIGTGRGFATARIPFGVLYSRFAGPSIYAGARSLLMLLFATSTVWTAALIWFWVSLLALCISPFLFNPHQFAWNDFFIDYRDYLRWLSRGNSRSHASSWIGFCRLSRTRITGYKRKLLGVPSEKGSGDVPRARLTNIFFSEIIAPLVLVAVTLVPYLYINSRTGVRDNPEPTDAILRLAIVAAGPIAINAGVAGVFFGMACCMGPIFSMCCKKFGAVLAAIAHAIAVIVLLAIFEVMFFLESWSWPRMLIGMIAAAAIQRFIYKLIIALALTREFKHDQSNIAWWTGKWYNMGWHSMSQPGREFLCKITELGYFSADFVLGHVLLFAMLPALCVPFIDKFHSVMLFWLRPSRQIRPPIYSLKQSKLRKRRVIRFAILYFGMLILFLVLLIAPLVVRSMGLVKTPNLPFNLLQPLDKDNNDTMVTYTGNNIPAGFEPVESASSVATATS

Row | SMILES | Growth phenotype of RG101 with drug in combination with CAS [1] | Growth phenotype of RG101 with drug alone [1] | Drug susceptibility testing result, ATCC 13073 [2] | Drug susceptibility testing result, RG101 [1] | other results
1 | CC(C)[C@@H](C)[C@@]1(C)CC[C@]2(C)[C@H]3CC[C@@H]4[C@@]5(COC[C@@]4(C)[C@@H](OC[C@](C)(N)C(C)(C)C)[C@H](n4ncnc4-c4ccncc4)C5)C3=CC[C@@]2(C)[C@@H]1C(=O)O [IFG, ibrexafungerp] | cross-resistance | sensitive | – | – | –
2 | NC(N)=S [thiourea] | – | – | – | – | Effect on CAS phenotype of ATCC 13073 [2, 12]: no change; Effect on CAS resistance of S679P [3, 12]: no effect; Effect on CAS-induced breakthrough resistance phenotype of RG101 [1, 12]: reversed; Reduction of CAS-induced ROS levels ([4]; 15 mM thiourea): 4 fold
3 | C[C@@H](c1ncncc1F)[C@](O)(Cn1cncn1)c1ccc(F)cc1F [Voriconazole, voriconazole] | – | – | 0.12 µg/mL | 0.12 µg/mL | –
4 | CCCCCOc1ccc(-c2cc(-c3ccc(C(=O)N[C@H]4C[C@@H](O)[C@@H](O)NC(=O)[C@@H]5[C@@H](O)[C@@H](C)CN5C(=O)[C@H]([C@H](O)CC(N)=O)NC(=O)[C@H]([C@H](O)[C@@H](O)c5ccc(O)c(OS(=O)(=O)O)c5)NC(=O)[C@@H]5C[C@@H](O)CN5C(=O)[C@H]([C@@H](C)O)NC4=O)cc3)no2)cc1 [MFG, micafungin] (X1-[Orn(4R-OH,5R-OH)]T[Hyp][hTyr(3S-OH,4S-OH,3'-OSO3H)][Gln(3R-OH)][Pro(3S-OH,4S-Me)]; lactam 1-C) | cross-resistance | sensitive | 0.03 µg/mL | 0.03 µg/mL | MEC (minimum effective concentration) [5]: 4 µg/mL; MEC (minimum effective concentration) [6]: 2 µg/mL; MEC (minimum effective concentration) [7]: 2 µg/mL; MEC (minimum effective concentration) [8]: 2 µg/mL; MEC (minimum effective concentration) [9]: 4 µg/mL; MEC (minimum effective concentration) ([2]; ATCC 13073, fks1 WT): 0.03 µg/mL; MEC (minimum effective concentration) ([3]; S679P, fks1 Ser-679-Pro): 16 µg/mL; Decrease in lung burden versus vehicle-treated group ([10]; RG101, 5 mg/kg daily for 5 days): ~5 fold; Average fungal lung burden ([10]; RG101 intratracheal, 5 mg/kg daily IP for 5 days, qPCR): 5.2 ng fungal DNA per lung; IC50 [11]: > 7.87 µM
5 | CCC(C)n1ncn(-c2ccc(N3CCN(c4ccc(OCC5COC(Cn6cncn6)(c6ccc(Cl)cc6Cl)O5)cc4)CC3)cc2)c1=O (stereo not drawn) [Itraconazole, itraconazole] | – | – | 0.5 µg/mL | 0.5 µg/mL | –
6 | CCCCCC[C@H]1C(=O)O[C@H](C)[C@H](NC(=O)c2cccc(NC=O)c2O)C(=O)O[C@@H](C)[C@@H]1OC(=O)CC(C)C [antimycin A] | – | – | – | – | Decrease of CAS-induced ROS production ([4]; 0.5 μg/ml antimycin A): over 2 fold
7 | CCCCCOc1ccc(-c2ccc(-c3ccc(C(=O)N[C@H]4C[C@@H](O)[C@@H](OCC[N+](C)(C)C)NC(=O)[C@@H]5[C@@H](O)[C@@H](C)CN5C(=O)[C@H]([C@@H](C)O)NC(=O)[C@H]([C@H](O)[C@@H](O)c5ccc(O)cc5)NC(=O)[C@@H]5C[C@@H](O)CN5C(=O)[C@H]([C@@H](C)O)NC4=O)cc3)cc2)cc1 [RZF, rezafungin] ({pTerphenylCO(4''-OnC5H11)}-[Orn(4R-OH,5R-OCH2CH2NMe3+)]T[Hyp][hTyr(3S-OH,4S-OH)]T[Pro(3S-OH,4S-Me)]; lactam 1-C) | cross-resistance | sensitive | – | – | –
8 | C[C@@H]1[C@H](O)[C@@H](C)/C=C/C=C/C=C/C=C/C=C/C=C/C=C/[C@H](O[C@@H]2O[C@H](C)[C@@H](O)[C@H](N)[C@@H]2O)C[C@@H]2O[C@](O)(C[C@@H](O)C[C@@H](O)[C@H](O)CC[C@@H](O)C[C@@H](O)CC(=O)O[C@H]1C)C[C@H](O)[C@H]2C(=O)O [Amphotericin B, amphotericin B] | – | – | 0.5 µg/mL | 0.5 µg/mL | –
9 | CCCCCOc1ccc(-c2ccc(-c3ccc(C(=O)N[C@H]4C[C@@H](O)[C@@H](O)NC(=O)[C@@H]5[C@@H](O)[C@@H](C)CN5C(=O)[C@H]([C@@H](C)O)NC(=O)[C@H]([C@H](O)[C@@H](O)c5ccc(O)cc5)NC(=O)[C@@H]5C[C@@H](O)CN5C(=O)[C@H]([C@@H](C)O)NC4=O)cc3)cc2)cc1 [ANF, anidulafungin] ({pTerphenylCO(4''-OnC5H11)}-[Orn(4R-OH,5R-OH)]T[Hyp][hTyr(3S-OH,4S-OH)]T[Pro(3S-OH,4S-Me)]; lactam 1-C) | cross-resistance | sensitive | 0.03 µg/mL | 0.03 µg/mL | –
